In the test the target is recombinant human MGAT2 (Homo sapiens (Human), UniProt Q3SYC2). Put plainly: Measurement of human MGAT2 inhibitory activity. The class given is biochemical. Conditions: concentration exhibiting 50% enzyme inhibition; recombinant human MGAT2, 2-Oleoylglycerol/Oleoyl-CoA. In short, it runs like this:
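Membrane fraction of baculovirus-infected Sf-9 cells expressing N-terminally Flag-tagged full-length human MGAT2, in 100 mmol/L phosphate pH 7.4 with 2 mmol/L DTT. The substrate solution held 30 μmol/L 2-oleoylglycerol and 10 μmol/L oleoyl-CoA. After 1 h at room temperature, diolein/diolein-d5 ratio was read by ESI Q-TOF MS and % inhibition derived against enzyme and no-enzyme controls.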

SMILES strings stand for the structures.

As a reminder, the IC50 is the concentration needed to halve the response being measured.

Sequence of recombinant human MGAT2 (Q3SYC2 whole entry): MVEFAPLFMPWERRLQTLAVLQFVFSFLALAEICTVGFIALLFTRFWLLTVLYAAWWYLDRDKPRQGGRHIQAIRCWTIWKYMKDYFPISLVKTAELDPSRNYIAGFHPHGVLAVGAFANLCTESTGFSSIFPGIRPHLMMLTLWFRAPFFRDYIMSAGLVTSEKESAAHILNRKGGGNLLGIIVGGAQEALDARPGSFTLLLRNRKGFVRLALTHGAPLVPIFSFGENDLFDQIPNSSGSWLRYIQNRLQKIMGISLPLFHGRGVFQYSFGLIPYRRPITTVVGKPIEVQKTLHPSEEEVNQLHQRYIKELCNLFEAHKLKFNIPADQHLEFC

Consider `N#Cc1ccc(-c2nn3c(c2NC(=O)CC(F)(F)F)C(=O)N[C@@]2(CCc4cc(OCC(F)(F)F)ccc42)C3)nc1` [Compound I-14], for which the IC50 is 46.1 nM.

For the origin of these results see patent US12227509B2, “Dihydropyrazolopyrazinone derivative having MGAT2 inhibitory activity” (Shionogi & Co., Ltd., priority 2019, dated 2025).
